Test results from patent US20210275514A1, “COMPOUNDS FOR USE IN TREATING KIDNEY DISORDERS” (Hoffmann-La Roche Inc., priority 2018, published 2021).
“Also recorded” adds a separate entry of the source.

Key:
[1] = system: ADR-induced nephropathy in Balb/c mice; assay: Adriamycin-induced kidney damage, dose finding experiment, 35 days; type: in vivo, mouse; conditions: for Albuminuria / proteinuria / Body weight loss: 5 weeks after ADR; for TOTAL CHOL (blood) / TRIGLYCERIDES (blood): 35 days after ADR injection
Protocol: First, we performed a preliminary experiment to explore the best dose of compounds to be used and to determine if other experimental variables needed to be adjusted. In this experiment, 30 mice received a single dose of Adriamycin (Sigma-Aldrich, 12 mg/Kg, via tail vein injection) and then were randomly separated into 6 groups of 5 mice each. Another 5 mice were injected with 0.9% NaCl by the same route and were used as a no-kidney injury baseline group. Starting 24 h after ADR injection, vehicle, or different doses of compounds, were given once daily by oral gavage for 35 days. The doses of compounds tested were the following: LXR agonist (Cpd C, 10 mg/Kg); ABCA1 inducers Cpd A and Cpd G (30 mg/Kg and 100 mg/Kg). Body weight measurements and spot urine collection was done once a week. Animals were sacrificed 35 days after ADR injection (FIG. 1).
(§1) Spot urine samples were collected for all mice at baseline and time of sacrifice. Urinary albumin and creatinine were determined using an albumin ELISA kit (Bethyl laboratories) and a colorimetric assay for creatinine determination (Stanbio). Albuminuria was calculated and expressed as μg of albumin divided by mg of creatinine. For diabetic mouse model, weight and glycaemia were measured on a bi-weekly basis.

ADR-injected Balb/c mice = assay: Toxicity by serology in ADR-injected mice (WBC, hemoglobin, hematocrit, transaminases); type: in vivo, mouse; conditions: for ALT / HCT / HEMOGLOBIN / WBC: 35-day treatment, ADR-injected; for liver toxicity and blood dyscrasias (serology): all treated animals
Source text: We next investigated compounds C, A and G toxicity by serology. More specifically, we determined hematocrit, hemoglobin white cell blood count and liver transaminases ALT and AST of all treated animals to determine if liver toxicity and blood dyscrasias were associated with the compounds.

[2] = system: ADR-induced nephropathy in Balb/c mice; assay: Adriamycin-induced kidney damage, second experiment, 28 days; type: in vivo, mouse; conditions: for Albuminuria / Body weight loss: 4 weeks after ADR; for TOTAL CHOL (blood) / TRIGLYCERIDES (blood): 28 days after ADR injection
Protocol: A second experiment was repeated to confirm the improvement of renal function attained with the doses of Cpd A and G in the first experiment. Briefly, 30 female Balb/c mice of 8 weeks age were injected with 12 mg/Kg of ADR by via tail vein and the mice were randomly distributed into 5 groups of 6 animals each. Animals were given vehicle or compounds by oral gavage once daily for 28 days starting one day after ADR injection. The following doses of compounds were tested: Cpd C, 10 mg/Kg/day; Cpd A, 30 mg/Kg/day and Cpd G, 30 mg/Kg/day and 100 mg/Kg/day. A group of 5 animals that received saline solution via tail vein injection and were treated with vehicle were used as healthy baseline control. Body weight measurements and spot urine collection was done once a week. Animals were sacrificed 28 days after ADR injection (FIG. 2).
as §1
At time of sacrifice blood was collected in heparinized tubes and mice were perfused via left ventricle perfusion with isotonic saline solution. Kidney cortex was carefully excised and further sectioned for the fallowing analysis: determination of podocyte number, lipid droplet staining, electron microscopy (EM), renal lipids content assays, PAS& HE staining for pathological evaluation.
Lipid droplet staining Filtered Oil-Red O-Isopropanol solution (Electron Microscopy Science, PA) was diluted with water (6:4). 4 μm kidney sections were incubated with 100 μl freshly prepared Oil-Red O solution (ORO) for 15 minutes and counterstained with Hematoxylin Harris Hg Free (VWR, PA) to detect lipid deposition. Glomeruli staining was evaluated using a light microscope (Olympus BX 41, Tokyo, Japan).
Renal lipids species assays. Kidney cortex sections were snap frozen and utilized for lipid extraction and cholesterol content determination. The tissue was homogenized in 2 mM potassium phosphate buffer in a glass douncer on ice. Lipids in 100 μl homogenate (˜5-10 mg tissue) were extracted with 1 ml hexane:isopropanol (3:2) for two sequential 30-minute extractions. The solvent containing lipids was then dried in Nitrogen atmosphere. Lipids were then reconstituted using isopropanol: NP-40 (9:1) and cholesterol content was quantified using the Amplex red cholesterol assay kit (Invitrogen) according to the manufacturers protocol. Triglycerides in lipid extracts were assayed with a colorimetric kit according to manufacturer's instructions (Cayman). Total cholesterol and cholesterol esters were assayed using an enzymatic fluorometric method. For total cholesterol renal lipid extracts were diluted in assay buffer (100 mM potassium phosphate, 50 mM NaCl, 5 mM cholic acid, 0.1% […], pH 7.4) and incubated with same buffer supplemented with a final concentration of 1 U/ml cholesterol oxidase, 1 U/ml cholesterol esterase, 1 U/ml horseradish peroxidase, and 75 μM Amplex Red. The reactions were incubated at 37° C. for 30 min in a black opaque 96 well plate (Greiner) and fluorescence was measured in a microplate reader (Spectramax i3X, Molecular Devices) using 530 nm excitation and 580 emission.
Cholesterol esters were assayed using a direct method described by Mizoguchi et al (Mizoguchi, 2004). Briefly 150 μl of FC decomposition reagent (45 U/ml bovine catalase and 1 U/ml cholesterol oxidase, in assay buffer described above) was added to 25 μl of sample containing up to 1 mM total cholesterol. Free cholesterol was allowed to decompose overnight at 37° C. and then 75 μl of 4× cholesterol ester detection reagent (1 U/ml cholesterol oxidase, 4 U/ml cholesterol esterase, 24 U/ml horseradish peroxidase, 300 μM Amplex Red) was added. […]

ABCA1 = assay: ApoA1-mediated cholesterol efflux in differentiated podocytes; type: cell-based, human; conditions: 18 h
Protocol: Human podocytes differentiated for 13 days were labeled with 1 μCi/ml of [^3H]-cholesterol in RPMI media with 2% FBS for 24 h. Cells were then washed with PBS and incubated with equilibration media (RPMI-0.2% fat free-BSA) supplemented with vehicle or compounds Cpd C (1 μM), Cpd A (1 μM, 5 μM) and Cpd G (1 μM, 5 μM, 10 μM) for 18 h. Cells were then washed with PBS, and incubated with equilibration media with or without 20 μg/ml of human ApoA1 for 18 h at 37° C., 5% CO2. Media was collected, spun at 12,000×g for 5 min and the radioactivity of the 200 μl aliquot was counted by liquid scintillation. Cells were washed with PBS, lysed with 250 μl 0.1% SDS, 0.1 M NaOH and the radioactivity in 100 μl aliquot was measured by liquid scintillation. Cholesterol efflux was calculated as the % of labeled cholesterol that moved from the cell to the media by the formula:
Efflux (%)=100×{(cpm media)/[(cpm media)+(cpm lysate)]}
ApoA1-mediated cholesterol efflux was calculated as the difference between the efflux in the presence or absence of ApoA1. All treatments were done in duplicate. More than 3 independent experiments were performed.

[3] = 30 mg/Kg once daily oral gavage
[4] = 100 mg/Kg once daily oral gavage

## O=C(N[C@@H]1CCCC[C@H]1O)c1ccc(OCC(F)(F)F)c(-c2ccc(Cl)c(Cl)c2)n1 [Cpd A, 6-(3,4-Dichlorophenyl)-N-[(1R,2R)-2-hydroxycyclohexyl]-5-(2,2,2-trifluoroethoxy)pyridine-2-carboxamide]
[1]; [3]
  Albuminuria / proteinuria: attenuated; also recorded: reduced
  Body weight loss: partially attenuated; also recorded: prevented
[1]; 30 mg/Kg
  TOTAL CHOL (blood): 86.3 ± 8.8 mg/dL
  TRIGLYCERIDES (blood): 57.6 ± 15.5 mg/dL
[1]; 100 mg/Kg
  TOTAL CHOL (blood): 226.7 ± 173.4 mg/dL
  TRIGLYCERIDES (blood): 47.3 ± 7.5 mg/dL
ADR-injected Balb/c mice; 30 mg/Kg
  ALT: 365.3 ± 181.2 U/L
  HCT: 51.8 ± 3.3%
  HEMOGLOBIN: 13.9 ± 1.1 g/dL
  WBC: 4.6 ± 1.3 ×10^∧3 cells/ul
ADR-injected Balb/c mice
  liver toxicity and blood dyscrasias (serology): No apparent signs of such toxicities
ADR-injected Balb/c mice; first ALT line (r15), 30 mg/Kg
  ALT: 339.3 ± 274.8 U/L
[2]; 30 mg/Kg once daily
  Albuminuria: significantly reduce; also recorded: reduced
  Body weight loss: significantly reduce; also recorded: reduced
[2]; 30 mg/Kg
  TOTAL CHOL (blood): 104.0 ± 31.6 mg/dL
  TRIGLYCERIDES (blood): 107 ± 23.9 mg/dL
ABCA1; 5 μM
  ApoA1-mediated cholesterol efflux: increase ApoA1-mediated cholesterol efflux; also recorded: Significant increase

## Cc1oc(-c2cccc(C(F)(F)F)c2)nc1Cn1c(C)cc2cc(C(O)(C(F)(F)F)C(F)(F)F)ccc21 [Cpd C, 1,1,1,3,3,3-Hexafluoro-2-{2-methyl-1-[5-methyl-2-(3-trifluoromethyl-phenyl)-oxazol-4-ylmethyl]-1H-indol-5-yl}-propan-2-ol, reference compound]
[1]; 10 mg/Kg once daily oral gavage
  Albuminuria / proteinuria: No significant differences
[1]; 10 mg/Kg
  TOTAL CHOL (blood): 117.4 ± 66.8 mg/dL
  TRIGLYCERIDES (blood): 57.2 ± 6.3 mg/dL
ADR-injected Balb/c mice; 10 mg/Kg
  ALT: 213.0 ± 151.7 U/L
  HCT: 44.8 ± 1.5%
  HEMOGLOBIN: 12.2 ± 1.0 g/dL
  WBC: 7.6 ± 4.4 ×10^∧3 cells/ul
ADR-injected Balb/c mice
  liver toxicity and blood dyscrasias (serology): No apparent signs of such toxicities
ADR-injected Balb/c mice; first ALT line (r15), 10 mg/Kg
  ALT: 299.5 ± 365.0 U/L
[2]; 10 mg/Kg
  TOTAL CHOL (blood): 119.8 ± 19.9 mg/dL
  TRIGLYCERIDES (blood): 110 ± 53.5 mg/dL
ABCA1; 1 μM
  ApoA1-mediated cholesterol efflux: increase ApoA1-mediated cholesterol efflux; also recorded: Significant increase

## O=C(N[C@@H]1CCCC[C@H]1O)c1cnc(OCC(F)(F)F)c(-c2ccc(Cl)c(Cl)c2)c1 [Cpd G, 5-(3,4-dichloro-phenyl)-N-((1R,2R)-2-hydroxy-cyclohexyl)-6-(2,2,2-trifluoro-ethoxy)-nicotinamide]
[1]; 30 mg/Kg
  TOTAL CHOL (blood): 136.3 ± 38.9 mg/dL
  TRIGLYCERIDES (blood): 51 ± 16.8 mg/dL
[1]; [4]
  Albuminuria / proteinuria: attenuated; also recorded: reduced
  Body weight loss: partially attenuated; also recorded: prevented
[1]; 100 mg/Kg
  TOTAL CHOL (blood): 109.7 ± 11.0 mg/dL
  TRIGLYCERIDES (blood): 62 ± 16.5 mg/dL
ADR-injected Balb/c mice; 30 mg/Kg
  ALT: 323.4 ± 87.1 U/L
  HCT: 49.5 ± 4.4%
  HEMOGLOBIN: 12.9 ± 1.0 g/dL
  WBC: 6.3 ± 1.2 ×10^∧3 cells/ul
ADR-injected Balb/c mice; 100 mg/Kg
  ALT: 212.4 ± 91.1 U/L
  HCT: 49.6 ± 2.3%
  HEMOGLOBIN: 13.1 ± 0.6 g/dL
  WBC: 4.7 ± 1.6 ×10^∧3 cells/ul
ADR-injected Balb/c mice
  liver toxicity and blood dyscrasias (serology): No apparent signs of such toxicities
ADR-injected Balb/c mice; first ALT line (r15), 30 mg/Kg
  ALT: 181.6 ± 69.0 U/L
ADR-injected Balb/c mice; first ALT line (r15), 100 mg/Kg
  ALT: 191.4 ± 79.9 U/L
[2]; 30 mg/Kg
  TOTAL CHOL (blood): 112.0 ± 13.6 mg/dL
  TRIGLYCERIDES (blood): 120 ± 18.8 mg/dL
[2]; 100 mg/Kg once daily
  Albuminuria: significantly reduce; also recorded: reduced
  Body weight loss: significantly reduce; also recorded: reduced
[2]; 100 mg/Kg, 28 days
  deposition of lipid droplets in the kidneys (Oil Red O staining): significantly reduced
[2]; 100 mg/Kg
  TOTAL CHOL (blood): 101.1 ± 12.8 mg/dL
  TRIGLYCERIDES (blood): 121 ± 19.3 mg/dL
[2]; 100 mg/Kg/day, 4 weeks
  global glomerular sclerosis (blind pathological study of kidney cortex): reduction
  interstitial inflammation: reduction
  podocyte hyperplasia: reduction
  podocyte hypertrophy: reduction
  segmental glomerular sclerosis: reduction
  tubular microcysts: reduction
[2]; 28 days, normalized to total protein
  esterified cholesterol content in kidney cortex: reduces accumulation of esterified cholesterol; also recorded: significantly reduced
[2]; optimal dose (100 mg/Kg), 3rd and 4th week of treatment
  physical appearance: better physical appearance
ABCA1; 10 μM
  ApoA1-mediated cholesterol efflux: increase ApoA1-mediated cholesterol efflux; also recorded: Significant increase
